Results reported in patent US9433588B2, “Delivery of submicrometer and nanometer aerosols to the lungs using hygroscopic excipients or dual stream nasal delivery” (Virginia Commonwealth Univeristy, priority 2009, dated 2016).
Like-named read-outs stand apart in the source and are kept apart here. Marks after values point to notes of the source that are not given here.

Legend:
[1] = Generation of submicrometer aerosol with small particle aerosol generator (SPAG) and drying gas; type: physicochemical; settings: SPAG nebulized and dried; 560 nm: 0.1% solution, 7.5 and 3 L/min; 900 nm: 0.5% solution, 7 and 3 L/min
Procedure: With LFT, a heated air source is not present for aerosol size reduction, as with HFT. However, medical gases used with LFT (oxygen and helium-oxygen) are typically dry. A study was conducted to evaluate if dry medical-grade gas could be used to produce a submicrometer aerosol from a commercially available nebulizer. A small particle aerosol generator (SPAG) was employed, which functions as a jet nebulizer with an additional relatively large and inefficient drying chamber. […] Specifically, albuterol sulfate solutions were nebulized and dried using a series of nebulizer airflow conditions to produce aerosols with initial mean MMADs (and standard deviations) of 150 (5.5) nm, 560 (11.4) nm, and 900 (32.7) nm (FIG. 11). The 560 nm aerosol was generated using a 0.1% albuterol sulfate in water solution with a nebulizer gas flow rate of 7.5 L/min and a drying gas flow rate of 3 L/min. […]
Nano-sized aqueous-based drug aerosols were generated using a small particle aerosol generator (SPAG-6000, ICN Pharmaceuticals, Costa Mesa, Calif.), and were delivered through a nasal model geometry airway in the presence and absence of ECG conditions. Albuterol sulfate solutions were nebulized using a series of nebulizer airflow conditions to produce aerosols with initial mean (SD) measured size of 900 (32.7) nm. […]

[2] = In vitro growth system for validation of the numerical model (CAG, growth zone, MOUDI); type: physicochemical
Procedure: Submicrometer drug and drug-hygroscopic excipient particles were formed using a capillary aerosol generator (CAG). The capillary aerosol generation system is described and considered in detail by the previous studies of Hindle et al. (1998) and Longest et al. (2007). In the current study, the formulation was a mixture of 50% water and 50% ethanol by weight to dissolve both hydrophilic and hydrophobic drugs. This solution was heated and pumped through the CAG at a flow rate of 10 mg/s to form the spray aerosol. Single drug and drug-hygroscopic excipient particles were created experimentally for albuterol sulfate (AS), budesonide (BD), and sodium chloride (NaCl). Specifically, single component drug particles were formed using a 0.2% w/v AS solution and a 0.15% w/v BD solution, respectively. Combination drug-hygroscopic excipient particles were generated using a 0.1% AS-0.1% NaCl w/v solution and a 0.1% BD-0.1% NaCl w/v solution, respectively. The spray aerosol was allowed to dry into solid particles by passage through a 52 cm length of dry tubing (FIG. 3). Initial particle size was then assessed by connecting the tubing to a 10 stage MOUDI (MSP Corp, Shoreview, Minn.). To produce growth, the aerosol stream was combined with humidified air at T=25° C. and RH=99% sampled from an environmental cabinet. […] This length was selected to provide a residence time of approximately 0.2 s, which is consistent with the time required for an orally inhaled pharmaceutical aerosol to reach the main bifurcation of the lungs under standard inhalation conditions. Walls of the growth section were pre-wetted to simulate the wet walled conditions of the respiratory tract, which stimulates aerosol growth. The growth tube was not heated and was exposed to 24° C. room temperature air for this initial validation experiment. After exiting the growth tube, the aerosol was passed into the 10 stage MOUDI for size characterization.
In separate experiments, the temperature and humidity of the humidified air and the temperature of the aerosol mixture stream at the inlet to the condensational growth tube were measured. […]
The initial aerodynamic particle size distribution of the aerosol exiting the drying section of tubing was determined using the 10 stage MOUDI operated at 30±2 L/min, which allowed size fractionation between 50 nm and 10 μm. […] The final aerodynamic particle size distribution of the aerosol exiting the condensational growth tube was also determined using the MOUDI operated at 30±2 L/min. […] The mass of drug and excipient on each impaction plate was determined and used to calculate both the initial and final aerodynamic particle size distributions of the drug and combination aerosols. […]

[3] = Hygroscopic growth tube, CAG nanoparticle aerosols sized by cascade impactor; type: physicochemical; settings: Table 2
Procedure: Budesonide nanoparticle aerosols were generated using the Capillary Aerosol Generator (CAG). This technology represents a generic means of producing engineered pharmaceutical nanosized particles suitable for inhalation. The CAG utilizes controlled heating of a liquid formulation passing through a capillary tube to produce nanosized dry particles exiting the capillary nozzle.
Hygroscopic growth of these nanoparticle aerosols was evaluated by passing the aerosol through a growth tube. Briefly, following nanoparticle generation the aerosols were drawn through the 29 cm hygroscopic growth tube at a flow rate of 30 L/min. The tube was held at 37° C. and 99% relative humidity (RH) to simulate expected lung conditions. The growth tube was approximately 29 cm, which is consistent with the distance from the mouth inlet to the main bronchi of an adult. Following passage through the tubular geometry the aerosols were delivered to the 10-stage MOUDI or Andersen Cascade Impactor (ACI; Graseby-Andersen Inc, Smyrna, Ga.) for particle sizing. Both the tubular geometry and the cascade impactor were placed in an environmental chamber (Espec Environmental Cabinet, Hudsonville, Mich.) to maintain constant temperature and humidity conditions. The ACI was employed following hygroscopic growth when it was expected that the aerosols produced would be in the 1-3 μm size range. For these studies, the final aerodynamic particle size distribution of the aerosol exiting the hygroscopic growth tube was determined at 28±2 L/min, and humidified co-flow air (99% RH) was supplied to the impactor. […] The mass of drug on each impaction plate was determined and used to calculate both the initial and final aerodynamic particle size distributions of the drug aerosols. The growth ratios were calculated by comparing the final size with the initial size of the nanoparticle as a measure of hygroscopic size increase.
Hygroscopic growth of these nanoparticle aerosols was evaluated by passing the aerosol through a growth tube as described in Example 1. […]

[4] = Hygroscopic properties of drugs and excipients (saturation limits, i coefficients, hygroscopic parameter); type: physicochemical; settings: for Saturated mass fraction (mfsat): mass fraction that can be dissolved in liquid water at 25° C.; for Predicted van't Hoff factor (i): measured in this study, best fit of Eq. (15) to water activity data; for Saturated mole fraction (χsat): mole fraction that can be dissolved in liquid water at 25° C.
Procedure: It is noted that Eq. (15) has a form similar to Raoult's law and is valid for materials that may (i>1) or may not (i=1) dissociate upon dissolution. Specifically, Raoult's law provides a linear expression to describe activity coefficients at low solute concentrations, as presented by Finlay (2001). […] Furthermore, values of the i coefficients in this study are determined based on best fits to experimental data over a range of concentrations. Therefore, the application of Eq. (15) can be viewed as a physically based expression for fitting the experimental data. Finally, high accuracy is required at dilute concentrations, which have the largest impact on the final size achieved by the hygroscopic aerosol.
Experimental measurements were made in this study to determine the water activity coefficients of AS, CA, and PG. Activity coefficients for NaCl and MN were determined from the studies of Cinkotai (1971) and Ninni (2000), respectively. […] In order to represent the hygroscopic effect of molecular dissociation with a single coefficient, curve fits to the experimental data were based on Eq. (15) for a single component solution. The optimal value of i providing the best fit to the experimental data was calculated using a minimization routine. […] This limit was used to ensure accuracy of the i-values for dilute droplets, which is needed to ensure accurate estimates of final droplet size.
[formula] where m and M represent the mass (kg) and molar mass (kg/kmol) of the solute (s) and water (w). […] Based on Eq. (15), is directly impacts the activity coefficient and ρs influences the mass term in the mole fraction calculation (Eq. 17). […] This effect of initial drug or excipient loading can be taken into account as a function of the initial solute volume fraction (vfs). The resulting growth coefficient (GC1) for a single component droplet is then

[5] = cited from earlier work; for Predicted van't Hoff factor (i): Eq. (15) fit based on Ninni et al. (2000) measurements (MN) or Cinkotai (1971) correlations (NaCl)

| Compound | initial mean MMAD (standard deviation) [1] | Initial MMAD ([2]; at inlet to growth zone, SD in parentheses, minimum 4 trials) | Initial dgeo ([2]; calculated from MMAD and dry particle density) [μm] | Final dgeo ([2]; outlet of 26 cm growth tube, about 0.2 s, 99% RH, assumed equal to the MMAD) | d/do ([2]; ratio of final to initial geometric diameters) | Initial MMAD ([3]; CAG-generated albuterol nanoparticles before growth tube, n = 3-4) [nm] | Final MMAD (99% RH) ([3]; after 29 cm growth tube, 37° C., 99% RH) [nm] | Growth ratio ([3]; final size compared with initial size, 29 cm growth tube, 99% RH) | Hygroscopic parameter isρs/Ms [4] [kmol/m^3] | Saturated mass fraction (mfsat) [4] | Predicted van't Hoff factor (i) [4] | Saturated mole fraction (χsat) [4] | Predicted van't Hoff factor (i) [5] | Predicted van't Hoff factor (i) ([5]; listed as NaCl) | i coefficient, Raoult's law form of the equation ([5]; NaCl data of Cinkotai (1971), through mfs = 0.3) |
| --- | --- | --- | --- | --- | --- | --- | --- | --- | --- | --- | --- | --- | --- | --- | --- |
| Albuterol sulfate [Albuterol sulfate (100%)] | 900 (32.7) nm | 0.38 (0.01)^a μm | 0.33 | 0.51 (0.04) μm | 1.55 (0.12) | 380 | 510 | 1.35 | 4.9 | 0.28 | 2.1 | 0.012 | – | – | – |
| O=C(O)CC(O)(CC(=O)O)C(=O)O [Citric acid (CA), Citric acid] | – | – | – | – | – | – | – | – | 16.5 | 0.57 | 1.9^d | 0.11 | – | – | – |
| CC(O)CO (centres unmarked) [Propylene glycol (PG), Propylene glycol] | – | – | – | – | – | – | – | – | 13.6 | 1.00 | 1.0^d | 1.00 | – | – | – |
| OC[C@@H](O)[C@@H](O)[C@H](O)[C@H](O)CO [Mannitol (MN), Mannitol] | – | – | – | – | – | – | – | – | 8.2 | 0.15 | – | 0.018 | 1.0^e | – | – |
| [Cl-].[Na+] [Sodium chloride (NaCl), Sodium chloride] | – | – | – | – | – | – | – | – | 77.9 | 0.265 | – | – | 2.1^f | 2.1 | 1.9 |
